Measurements as given in article PMC7714403 (JCI Insight, 2020).

Tests used:
MAP3K2, MAP3K3 = assay: KiNativ, OCI cells live cell; format: cell-based, human; settings: labeling site Lys2, peptide DIKGANILR
[1] = tested on: murine FLT3-ITD+/– IDH2-R140Q+/– AML cells; assay: Primary transplantation model of murine AML cells; format: in vivo, NSG mice
Description: (§1) Engraftment and growth of leukemic cells were monitored by noninvasive bioluminescence imaging in cell line xenograft models, as previously done ([47]). Details on the cell engraftment and dosing in mouse models are provided in the Supplemental Methods.
(§2) Luc+ or MOLM13-Res -Luc+ cells, 0.5 million OCI-AML3 -Luc+ cells, and 10,000 Ba/F3-FLT3-ITD/F691L-GFP+ cells. Weekly tumor engraftment of cell line xenograft models were assessed after injection of D-luciferin (150mg/kg i.p.; Gold Biotechnology, Inc, St. Louis, MO) on Xenogen IVIS-200 imaging system (Perkin Elmer, Waltham, MA) or GFP monitoring by peripheral blood via BD LSR II flow cytometer (BD Biosciences, San Jose, CA). Signal intensity was analyzed using Living Image Software (PerkinElmer) or FlowJo v10.0.08 software (FlowJo, LLC, Ashland, OR). Mice were randomized to treatment groups based on signal intensity and leukemia burden. Drug treatments were started on days 3, 7, or 13 after cell injection in OCI-AML3, MOLM13, and MOLM13-Res xenografts, respectively. In murine AML transplantation model, 1 million FLT3-ITD+/-/IDH2-R140Q+/- splenocytes (in house colony) were intravenously injected in male NSG mice. […]
At indicated time points, cells were collected and washed with PBS. CD11b expression was measured using anti-CD11b -APC antibody (BioLegend, San Diego, CA). […] CD11b expression and apoptosis were measured by BD LSR II flow cytometer. […]

[2] = tested on: phospho-FLT3 and phospho-STAT5 in Ba/F3-FLT3-ITD/F691L cells; assay: Western blot, signaling inhibition; format: cell-based, mouse; settings: increasing concentrations, 1 hour
Description: MOM13 cells were serum starved (RPMI plus 0.5% FBS) for 18–24 hours prior to start of drug treatment. For other cells, they were not serum starved. Drug treatments were carried out for 1 or 4 hours, at which time cells were lysed with Cell Lysis buffer (CST) or RIPA buffer (CST) supplemented with protease and phosphatase inhibitors. […] Western blots were developed with either Signal Fire ECL reagent (CST) or SuperSignal West Femto Maximum Sensitivity Substrate (Invitrogen) using Film or Odyssey FC Imaging System (LI-COR Biosciences). Western blots were repeated in 2–3 biological replicate experiments.

ARAF = ARAF (Homo sapiens, UniProt P10398); assay: KiNativ, OCI cells live cell; format: cell-based; settings: 2 h, labeling site Lys2, peptide […]
ARAF, sequence (P10398 whole entry, the tested form may be a part): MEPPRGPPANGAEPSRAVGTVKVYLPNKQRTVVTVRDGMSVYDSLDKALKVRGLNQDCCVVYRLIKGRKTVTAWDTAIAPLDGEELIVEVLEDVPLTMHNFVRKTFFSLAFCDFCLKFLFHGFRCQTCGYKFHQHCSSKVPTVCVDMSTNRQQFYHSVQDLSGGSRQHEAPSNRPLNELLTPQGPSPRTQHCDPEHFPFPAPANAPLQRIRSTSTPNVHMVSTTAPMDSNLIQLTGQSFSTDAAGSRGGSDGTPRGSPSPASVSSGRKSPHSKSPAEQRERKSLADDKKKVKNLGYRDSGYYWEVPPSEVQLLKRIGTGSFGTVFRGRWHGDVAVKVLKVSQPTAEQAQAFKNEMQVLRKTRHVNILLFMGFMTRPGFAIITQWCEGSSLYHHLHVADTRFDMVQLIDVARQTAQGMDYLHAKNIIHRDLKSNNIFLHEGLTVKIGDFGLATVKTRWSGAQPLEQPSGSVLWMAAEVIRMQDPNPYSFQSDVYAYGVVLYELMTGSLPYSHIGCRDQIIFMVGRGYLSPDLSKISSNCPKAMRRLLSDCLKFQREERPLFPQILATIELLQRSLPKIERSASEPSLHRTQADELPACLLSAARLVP

JAK1 domain2 = molecular target: T1, JAK1 domain2 (Homo sapiens, UniProt P23458); assay: KiNativ, OCI cells live cell; format: cell-based
T1 construct: JAK1 domain2
T1 sequence (P23458 whole entry, the tested form may be a part): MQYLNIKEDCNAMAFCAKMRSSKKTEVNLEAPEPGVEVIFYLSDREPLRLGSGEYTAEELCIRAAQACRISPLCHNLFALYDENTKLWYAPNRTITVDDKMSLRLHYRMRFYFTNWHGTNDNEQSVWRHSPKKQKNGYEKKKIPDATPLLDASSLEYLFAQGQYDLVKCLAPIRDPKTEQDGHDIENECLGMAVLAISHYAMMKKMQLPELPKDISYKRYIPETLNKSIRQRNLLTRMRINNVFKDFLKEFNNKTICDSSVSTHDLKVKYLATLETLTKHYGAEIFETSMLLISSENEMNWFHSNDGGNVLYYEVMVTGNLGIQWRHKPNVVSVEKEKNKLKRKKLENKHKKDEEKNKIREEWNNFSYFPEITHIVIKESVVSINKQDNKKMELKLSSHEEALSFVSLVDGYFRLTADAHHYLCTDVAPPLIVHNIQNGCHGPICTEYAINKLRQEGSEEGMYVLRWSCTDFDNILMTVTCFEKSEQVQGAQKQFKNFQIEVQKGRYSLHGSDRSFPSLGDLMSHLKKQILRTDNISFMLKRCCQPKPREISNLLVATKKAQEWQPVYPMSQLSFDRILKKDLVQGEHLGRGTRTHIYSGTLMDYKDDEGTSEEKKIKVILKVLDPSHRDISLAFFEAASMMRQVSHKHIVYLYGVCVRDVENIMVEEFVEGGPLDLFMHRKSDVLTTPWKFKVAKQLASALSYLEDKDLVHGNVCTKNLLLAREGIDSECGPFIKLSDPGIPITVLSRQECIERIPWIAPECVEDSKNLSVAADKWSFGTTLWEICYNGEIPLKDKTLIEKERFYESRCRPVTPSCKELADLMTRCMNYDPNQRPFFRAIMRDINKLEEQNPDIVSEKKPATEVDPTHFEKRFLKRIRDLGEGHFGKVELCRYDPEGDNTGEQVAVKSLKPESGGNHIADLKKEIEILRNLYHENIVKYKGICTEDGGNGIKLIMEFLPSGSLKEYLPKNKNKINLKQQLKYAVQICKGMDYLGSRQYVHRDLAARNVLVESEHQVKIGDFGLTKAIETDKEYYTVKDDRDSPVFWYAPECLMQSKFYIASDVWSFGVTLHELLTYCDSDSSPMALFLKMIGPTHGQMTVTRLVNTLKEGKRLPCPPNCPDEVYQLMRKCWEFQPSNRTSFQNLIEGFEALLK

[3] = tested on: MV4-11, MOLM13, and MOLM13-RES cells; assay: MTT viability assay; format: cell-based; settings: Homo sapiens; range over MV4-11, MOLM13, MOLM13-RES
Description: (§3) Drug treatments were carried out for 72 hours. Details are provided in the Supplemental Methods.

[4] = tested on: Ba/F3 cells expressing FLT3 D835H/Y; assay: MTT viability assay; format: cell-based; settings: Mus musculus, BaF3, read-out: IC50 values, range
Description: as §3

IRE1 = IRE1 (Homo sapiens, UniProt O75460); assay: KiNativ, OCI cells live cell; format: cell-based; settings: 2 h, labeling site Lys2, peptide […]
IRE1, sequence (O75460 19-977): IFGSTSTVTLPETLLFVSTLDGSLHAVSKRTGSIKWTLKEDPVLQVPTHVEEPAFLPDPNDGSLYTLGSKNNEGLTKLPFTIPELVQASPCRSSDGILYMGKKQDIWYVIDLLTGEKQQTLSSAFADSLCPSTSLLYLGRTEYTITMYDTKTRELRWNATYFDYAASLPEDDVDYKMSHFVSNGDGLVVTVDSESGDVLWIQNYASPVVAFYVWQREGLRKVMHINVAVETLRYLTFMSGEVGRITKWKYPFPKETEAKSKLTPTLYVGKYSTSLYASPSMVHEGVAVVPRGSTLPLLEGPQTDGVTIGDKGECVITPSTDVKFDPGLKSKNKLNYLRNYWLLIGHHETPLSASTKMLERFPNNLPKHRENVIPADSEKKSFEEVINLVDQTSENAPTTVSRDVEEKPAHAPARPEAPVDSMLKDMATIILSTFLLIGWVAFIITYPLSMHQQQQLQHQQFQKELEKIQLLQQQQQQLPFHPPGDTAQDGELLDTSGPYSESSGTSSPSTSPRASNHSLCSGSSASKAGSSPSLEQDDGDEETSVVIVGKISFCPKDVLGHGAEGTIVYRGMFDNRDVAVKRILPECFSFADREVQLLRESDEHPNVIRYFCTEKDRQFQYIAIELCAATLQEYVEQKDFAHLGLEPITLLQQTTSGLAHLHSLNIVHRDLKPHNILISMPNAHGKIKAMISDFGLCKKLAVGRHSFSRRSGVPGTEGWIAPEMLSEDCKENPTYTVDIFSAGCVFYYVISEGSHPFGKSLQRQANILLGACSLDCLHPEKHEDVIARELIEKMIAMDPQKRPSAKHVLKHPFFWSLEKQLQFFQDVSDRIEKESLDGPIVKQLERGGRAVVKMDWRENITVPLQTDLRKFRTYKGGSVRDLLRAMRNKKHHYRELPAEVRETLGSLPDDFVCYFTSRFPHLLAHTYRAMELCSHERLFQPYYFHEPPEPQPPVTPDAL

[5] = tested on: Ba/F3-FLT3-ITD/F691L-GFP+ cells; assay: Ba/F3 FLT3-ITD/F691L-GFP+ xenograft model; format: in vivo, NSG mice; settings: 60 mg/kg once daily, after 13 days of treatment
Description: as §1
as §2, with “mice. On day 7, mice were started on drug treatments. All mice were observed daily and humanely euthanized when showing signs of progressive disease including, hind limb paralysis, weight loss more than 20%, and lethargy.” for “mice.”

FYN, SRC, YES = assay: KiNativ, OCI cells live cell; format: cell-based, human; settings: labeling site Activation Loop, peptide QGAKFPIKWTAPEAALYGR
p38a = p38a (Homo sapiens, UniProt Q16539); assay: KiNativ, OCI cells live cell; format: cell-based
p38a, sequence (Q16539 whole entry): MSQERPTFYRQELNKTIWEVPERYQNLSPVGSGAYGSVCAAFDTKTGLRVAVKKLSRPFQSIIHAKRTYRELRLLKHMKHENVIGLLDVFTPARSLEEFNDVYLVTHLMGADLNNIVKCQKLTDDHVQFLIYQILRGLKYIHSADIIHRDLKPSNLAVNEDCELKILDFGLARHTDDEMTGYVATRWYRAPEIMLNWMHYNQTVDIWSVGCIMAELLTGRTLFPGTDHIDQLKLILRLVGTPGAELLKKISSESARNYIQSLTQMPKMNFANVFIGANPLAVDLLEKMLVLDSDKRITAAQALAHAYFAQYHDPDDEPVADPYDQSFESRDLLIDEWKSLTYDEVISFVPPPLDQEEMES

CN1CCN(Cc2ccc(Nc3ncc(Cl)c(Nc4ccccc4S(=O)(=O)N(C)C)n3)cc2)CC1 [TP-0903]
Inhibition (MAP3K2, MAP3K3): 21.4%
Spleen weight at study endpoint (mean ± SD) ([1]; 40 mg/kg once daily): 50 ± 13 mg
Survival prolonged compared with vehicle ([1]; 40 mg/kg once daily up to 6 weeks): 9 days
phospho-FLT3 and phospho-STAT5 by immunoblot [2]: inhibition
inhibition at 0.1 µM (ARAF): -0.7%
Inhibition (JAK1 domain2; labeling site Activation Loop, peptide IGDFGLTKAIETDKEYYTVK): -56.4%
Inhibition (JAK1 domain2; labeling site Lys1, peptide YDPEGDNTGEQVAVKSLKPESGGNHIADLKK): -85.5%
IC50 [3]: 16 to 21 nM
IC50 [4]: 16 to 22 nM
inhibition at 0.1 µM (IRE1): 33.5%
Peripheral blood GFP signal compared with gilteritinib [5]: significantly lower
Inhibition (FYN, SRC, YES): 16.0%
Inhibition (p38a; labeling site Lys2, peptide DLKPSNLAVNEDCELK): -2.7%
Inhibition (p38a; labeling site Other, peptide QELNKTIWEVPER): 5.6%
